# Data from publication PMC11676667, “Pharmacokinetics of Oral Cannabinoid Δ8-Tetrahydrocannabivarin and Its Main Metabolites in Healthy Participants” (Pharmaceuticals, 2024).
# Like-named read-outs stand apart in the source and are kept apart here.
# Experiment: Plasma pharmacokinetics after single oral dose of Δ8-THCV in MCT oil (LC-MS/MS, non-compartmental analysis)
# Format: in vivo, human
# Conditions: for concentration at 0.5 h / concentration at 1 h / concentration at 2 h / concentration at 4 h / concentration at 6 h / concentration at 8 h / AUC(0-t) / Cmax / MRT / Tmax: human; for concentration at 0.5 h / concentration at 1 h / concentration at 2 h / concentration at 4 h / concentration at 6 h / concentration at 8 h: oral; for AUC(0-t) / Cmax / MRT / Tmax: po; for MRT: read-out: MRT (mean residence time)
# Procedure: The study was a two-phase, dose-ranging, placebo-controlled trial in 21 healthy participants to assess the safety, tolerability, PK, and PD of an oral formulation of Δ8-THCV. A detailed description of the study was published elsewhere. The study product was a medium-chain triglyceride (MCT) oil oral formulation of Δ8-THCV at a concentration of 50 mg/mL. […] MCT oil was used as placebo.
# Twenty-one participants were enrolled in the clinical study and plasma samples from 15 participants were sent to our laboratory for pharmacokinetic evaluation. Of these, 3 participants were enrolled in Phase 1, an unblinded, placebo-controlled, single ascending dose design and 12 were enrolled in Phase 2, a double-blind, randomized, placebo-controlled, within-participant crossover design. At each study session, participants received one of the following oral doses: placebo, 12.5 mg, 25 mg, 50 mg, 100 mg, and 200 mg of the aforementioned Δ8-THCV formulation in MCT. Study visits were separated by a washout period of a minimum of one week and maximum of 28 days. Participants entered the research facility the night before the session and received the study product in the morning after a standardized high-fat, high-calorie breakfast. PK blood samples included in this analysis were collected prior to dosing and 0.5, 1, 2, 4, 6, and 8 h after dose. Immediately following collection into K2EDTA tubes, blood samples were placed on wet ice, centrifuged, and plasma was immediately frozen at −80 °C until shipment to the bioanalytical laboratory (iC42 Clinical Research and Development, University of Colorado, Aurora, CO, USA) on dry ice.
# Plasma samples were analyzed using a validated high-performance liquid chromatography–tandem mass spectrometry (LC-MS/MS) assay. The assay included Δ8-THCV and its main metabolites 11-OH-Δ8-THCV and Δ8-THCV-COOH, Δ9-THCV and its main metabolite Δ9-THCV-COOH, and Δ9-THC and Δ8-THC as well as their main metabolites (Figure 3). The complete list of analyzed compounds and a summary of the key performance parameters of the assay are presented in Appendix A and Table A1 and Table A2. […] For the PK analysis, concentrations below the lower limit of quantification were set to 0 ng/mL. PK parameters were calculated using non-compartmental analysis (Phoenix WinNonlin version 8.4., Certara, Princeton, NJ, USA). Statistical analysis was carried out using GraphPad Prism (version 10, Boston, MA, USA).
# [1] = plasma, 100 mg, 100 mg Δ8-THCV dose, Median (IQ Range)
# [2] = plasma, 100 mg, 100 mg Δ8-THCV dose, Mean (SD, %CV)
# [3] = plasma, 200 mg, 200 mg Δ8-THCV dose, Mean (SD, %CV)
# [4] = plasma, 200 mg, 200 mg Δ8-THCV dose, Median (IQ Range)
# [5] = plasma, 12.5 mg, 12.5 mg single oral Δ8-THCV in MCT oil, Mean (±SD)
# [6] = plasma, 12.5 mg, 12.5 mg single oral Δ8-THCV in MCT oil, Median (Range)
# [7] = plasma, 25 mg, 25 mg single oral Δ8-THCV in MCT oil, Mean (±SD)
# [8] = plasma, 25 mg, 25 mg single oral Δ8-THCV in MCT oil, Median (Range)
# [9] = plasma, 50 mg, 50 mg single oral Δ8-THCV in MCT oil, Mean (±SD)
# [10] = plasma, 50 mg, 50 mg single oral Δ8-THCV in MCT oil, Median (Range)
# [11] = plasma, 100 mg, 100 mg single oral Δ8-THCV in MCT oil, Mean (±SD)
# [12] = plasma, 100 mg, 100 mg single oral Δ8-THCV in MCT oil, Median (Range)
# [13] = plasma, 200 mg, 200 mg single oral Δ8-THCV in MCT oil, Mean (±SD)
# [14] = plasma, 200 mg, 200 mg single oral Δ8-THCV in MCT oil, Median (Range)
structure (smiles),measurement,setting,value
"CCCc1cc(O)c2c(c1)OC(C)(C)[C@@H]1CC=C(C(=O)O)C[C@@H]21 [Δ8-THCV-COOH, 11-nor-9-carboxy-Δ8-THCV]",concentration at 0.5 h,[1],1.7 ng/mL
same,concentration at 1 h,[2],202 ng/mL
same,concentration at 1 h,[1],79.5 ng/mL
same,concentration at 2 h,[2],306 ng/mL
same,concentration at 2 h,[1],275 ng/mL
same,concentration at 4 h,[2],556 ng/mL
same,concentration at 4 h,[1],547 ng/mL
same,concentration at 6 h,[2],512 ng/mL
same,concentration at 6 h,[1],497 ng/mL
same,concentration at 8 h,[2],319 ng/mL
same,concentration at 8 h,[1],304 ng/mL
same,concentration at 0.5 h,[3],5.6 ng/mL
same,concentration at 0.5 h,[4],0 ng/mL
same,concentration at 1 h,[3],158 ng/mL
same,concentration at 1 h,[4],108 ng/mL
same,concentration at 2 h,[3],653 ng/mL
same,concentration at 2 h,[4],319 ng/mL
same,concentration at 4 h,[3],1300 ng/mL
same,concentration at 4 h,[4],1110 ng/mL
same,concentration at 6 h,[3],1170 ng/mL
same,concentration at 6 h,[4],1020 ng/mL
same,concentration at 8 h,[3],917 ng/mL
same,concentration at 8 h,[4],855 ng/mL
same,AUC(0-t),[5],398 ng·h/mL
same,Cmax,[5],99 ng/mL
same,AUC(0-t),[6],331 ng·h/mL
same,Cmax,[6],101 ng/mL
same,MRT,"plasma, 12.5 mg, 12.5 mg single oral Δ8-THCV in MCT oil, plasma, Mean (±SD)",4.9 h
same,Tmax,"plasma, 12.5 mg, 12.5 mg single oral Δ8-THCV in MCT oil, plasma, Mean (±SD), read-out: tmax",4.9 h
same,MRT,"plasma, 12.5 mg, 12.5 mg single oral Δ8-THCV in MCT oil, plasma, Median (Range)",4.9 h
same,Tmax,"plasma, 12.5 mg, 12.5 mg single oral Δ8-THCV in MCT oil, plasma, Median (Range), read-out: tmax",4 h
same,AUC(0-t),[7],642 ng·h/mL
same,Cmax,[7],151 ng/mL
same,AUC(0-t),[8],574 ng·h/mL
same,Cmax,[8],116 ng/mL
same,MRT,"plasma, 25 mg, 25 mg single oral Δ8-THCV in MCT oil, plasma, Mean (±SD)",4.8 h
same,Tmax,"plasma, 25 mg, 25 mg single oral Δ8-THCV in MCT oil, plasma, Mean (±SD), read-out: tmax",4.6 h
same,MRT,"plasma, 25 mg, 25 mg single oral Δ8-THCV in MCT oil, plasma, Median (Range)",4.6 h
same,Tmax,"plasma, 25 mg, 25 mg single oral Δ8-THCV in MCT oil, plasma, Median (Range), read-out: tmax",4 h
same,AUC(0-t),[9],1210 ng·h/mL
same,Cmax,[9],324 ng/mL
same,AUC(0-t),[10],1090 ng·h/mL
same,Cmax,[10],275 ng/mL
same,MRT,"plasma, 50 mg, 50 mg single oral Δ8-THCV in MCT oil, plasma, Mean (±SD)",5.3 h
same,Tmax,"plasma, 50 mg, 50 mg single oral Δ8-THCV in MCT oil, plasma, Mean (±SD), read-out: tmax",5.3 h
same,MRT,"plasma, 50 mg, 50 mg single oral Δ8-THCV in MCT oil, plasma, Median (Range)",5.3 h
same,Tmax,"plasma, 50 mg, 50 mg single oral Δ8-THCV in MCT oil, plasma, Median (Range), read-out: tmax",6 h
same,AUC(0-t),[11],3070 ng·h/mL
same,Cmax,[11],756 ng/mL
same,AUC(0-t),[12],3130 ng·h/mL
same,Cmax,[12],699 ng/mL
same,MRT,"plasma, 100 mg, 100 mg single oral Δ8-THCV in MCT oil, plasma, Mean (±SD)",4.8 h
same,Tmax,"plasma, 100 mg, 100 mg single oral Δ8-THCV in MCT oil, plasma, Mean (±SD), read-out: tmax",4.7 h
same,MRT,"plasma, 100 mg, 100 mg single oral Δ8-THCV in MCT oil, plasma, Median (Range)",4.6 h
same,Tmax,"plasma, 100 mg, 100 mg single oral Δ8-THCV in MCT oil, plasma, Median (Range), read-out: tmax",4 h
same,AUC(0-t),[13],6960 ng·h/mL
same,Cmax,[13],1740 ng/mL
same,AUC(0-t),[14],6000 ng·h/mL
same,Cmax,[14],1900 ng/mL
same,MRT,"plasma, 200 mg, 200 mg single oral Δ8-THCV in MCT oil, plasma, Mean (±SD)",5.1 h
same,Tmax,"plasma, 200 mg, 200 mg single oral Δ8-THCV in MCT oil, plasma, Mean (±SD), read-out: tmax",5.3 h
same,MRT,"plasma, 200 mg, 200 mg single oral Δ8-THCV in MCT oil, plasma, Median (Range)",5.1 h
same,Tmax,"plasma, 200 mg, 200 mg single oral Δ8-THCV in MCT oil, plasma, Median (Range), read-out: tmax",6 h
same,Tmax,"plasma, across oral Δ8-THCV doses 12.5-200 mg, plasma, read-out: median time-to-maximum concentration (tmax), range across doses",4.6 to 5.3 h
same,number of positive plasma samples,of 504 plasma samples from 15 participants after oral Δ8-THCV,381
same,concentration in representative plasma sample,"one subject after oral Δ8-THCV in MCT oil, Figure A1",1026 ng/mL
same,median systemic exposure (plasma AUClast) relative to parent compound,oral Δ8-THCV,36 fold
same,"plasma concentration relative to Δ8-THCV, on average at each timepoint",oral Δ8-THCV,10 fold
same,increase of median AUClast every two-fold increase in the dose,"oral Δ8-THCV 12.5-200 mg, plasma",1.7- to 2.9 fold
